Measured values taken from US9642920B2, “Therapeutic agent delivery system and method” (Case Western Reserve University, priority 2009, dated 2017).

What was measured:
[1] = Fluorometry characterization of DOX and CD affinity (β-CD); assay type: binding; conditions: cell culture medium, 37° C.
Description: (§1) When DOX, a fluorescent compound, forms an inclusion complex with CD, the fluorescent signal is enhanced (1) due to diminished intermolecular quenching. Increasing the amount of β- and γ-CD monomers (0 mM-16 mM) were added to a constant concentration of DOX in cell culture medium at 37° C. (n=3). Aliquots were taken for fluorescence measurements (Synergy H1) with an excitation and emission wavelength of 498 nm and 590 nm, respectively. Based on a modified Benesi-Hildebrand equation, nonlinear regression analysis was performed in MATLAB to estimate the association constants (Ka).

[2] = Surface plasmon resonance affinity between DOX and γ-CD; assay type: binding; conditions: HBS-N buffer pH 7.4
Description: (§2) Surface plasmon resonance (SPR) spectroscopy was performed on Biacore ×100 to characterize the affinity between DOX and β- and γ-CD. 6-NH2-β- and γ-CD monomers were immobilized onto CM5 sensor chips using amine-coupling chemistry. To optimize immobilization conditions, pH scouting was performed via suspending 0.1 mM of 6-NH2-β- and γ-CD monomers in various pH buffers (borate 8.5, HBS-N 7.4, PBS 7.4, acetate 5) and injecting the suspensions over the sensor chip surface. The carboxylic groups on the sensor chip surface were activated via n injection of 0.4 M EDC/0.1 M NHS. Surface immobilization in flow cell 2 proceeded with an injection of 0.1 mM of 6-amino-6-deoxy-β- or γ-CD monomers suspended in the previously determined optimal buffer, borate 8.5. Blank immobilization was performed in flow cell 1, which was used as a reference flow cell. Finally, unreacted reaction sites in both flow cells were inactivated by an injection of 1 M ethanolamine (pH 8.5). All injections were performed at […] for 7 min.
(§3) Injections of 50 mM sodium hydroxide was used to wash off any bound DOX and regenerate the sensor chip surface in between sample injections. Successful regeneration was confirmed by examining the baseline signal prior to each injection and that after regeneration. […]

[3] = Fluorometry characterization of DOX and CD affinity (γ-CD); assay type: binding; conditions: cell culture medium, 37° C.
Description: as §1

[4] = tested on: U-87 MG cells; assay: Cytotoxicity of DOX against U-87 MG cells; assay type: cell-based, human; conditions: 2 μM of DOX
Description: After another 24 hr incubation, 20 μl of a 5 mg/ml MTT solution was added to each well. The cells were incubated for 3 hr and the medium was then replaced by 200 μl of DMSO. After 30 min incubation, the plate was read using Synergy H1 with an absorbance wavelength of 590 nm. The results were normalized to readings from a set of wells with cells treated with no DOX, which represented 100% survival. Percent cell death was defined as 1-percent survival.
A similar procedure was used when testing the cytoxicity of DOX against U-87 MG, a human glioblastoma cell line. However, instead of previously collected DOX solution, DOX solutions at desired concentrations were made fresh for this assay.

[5] = Surface plasmon resonance affinity between DOX and β-CD; assay type: binding; conditions: HBS-N buffer pH 7.4
Description: as §2, §3

COc1cccc2c1C(=O)c1c(O)c3c(c(O)c1C2=O)C[C@@](O)(C(=O)CO)C[C@@H]3O[C@H]1C[C@H](N)[C@H](O)[C@H](C)O1 [DOX, doxorubicin]
Association Constant Ka β-CD · DOX [1]: 153 ± 15 M⁻¹ | Association Constant Ka γ-CD · DOX [2]: 490 ± 7 M⁻¹ | Association Constant Ka γ-CD · DOX [3]: 264 ± 20 M⁻¹ | U-87 MG cells killed [4]: ~20% | Association Constant Ka β-CD · DOX [5]: 205 ± 5 M⁻¹
